Article PMC8826726, “Selective Toxicity of Secondary Metabolites from the Entomopathogenic Bacterium Photorhabdus luminescens sonorensis against Selected Plant Parasitic Nematodes of the Tylenchina Suborder” (Microbiology Spectrum, 2022)
≈ marks a conversion by molar mass, not a printed value.

Columns and labels:
Caenorhabditis elegans = conditions: cited from earlier work
Meloidogyne incognita = conditions: cited from earlier work
in vitro = assay: in vitro
Excerpt: The non-target species, C. elegans wild-type strain N2 Bristol (courtesy of Dr. G.L. Sutphin, University of Arizona) and Rhabditis blumi DF5010 (Caenorhabditis Genetics Center, University of MN, USA) were maintained in vitro in nematode growth medium (NGM) agar plates seeded with Escherichia coli (Migula) Castellani and Chalmers, strain OP-50, as described previously ([52]). Mixed juveniles and hermaphrodites (5 to 6 days old) were collected from the culture plates prior to the bioassays. Infective third-stage juveniles (IJs) of three non-target entomopathogenic nematode species (H. sonorensis Caborca strain, H. bacteriophora TT01 strain, and Steinernema carpocapsae All strain) were also maintained by rearing them in vivo using wax moth larvae (Galleria mellonella) as the host, according to procedures described previously ([53]), and collected for bioassays within 2 to 4 days of their emergence from nematode-infected cadavers. Nematode population density (number of nematodes per ml) was standardized prior to setting up well-plate bioassays, by adjusting each nematode suspension to a concentration of 100 nematodes in 20 μL of distilled water.
(§1) Twelve-well tissue culture plates were used as the experimental arena. For each of the tested nematode species, an inoculum of 100 nematodes, suspended in 20 μL distilled water, was added to each well. […] For PPA (Enamine) and indole (Alfa Aesar), 13 incremental concentrations were tested ranging from 10 to 400 μg/mL in 1 mL of distilled water (DMSO ≤ 1%; vol/vol). […] Distilled water with 1% DMSO was used as the negative control. To measure the combined nematicidal effects of the three SMs, equal concentrations of two or three SMs were mixed in 1:1 or 1:1:1 mixture. For example, a 20 μg/mL solution of a two-SM mixture contained 20 μg from metabolite A and 20 μg metabolite B, dissolved in 1 mL distilled water. Individual or combined SMs from 10 μg/mL to 200 μg/mL (in 20 μg/ml increments) were prepared in distilled water (DMSO ≤ 1%; vol/vol) and used for the bioassays.
(§2) The well plates were covered with their lids and incubated at 25°C in the dark. For the targeted nematode species, nematicidal activity was recorded at 24 h, 48 h, and 72 h after initial exposure to the individual SMs. For the non-target species, data were only recorded at 24 h after initial exposure to the individual SMs. For SM mixtures, mortality was recorded 24 h after initial exposure of the targeted nematode species. Nematodes were probed with a needle to assess if they were alive, dead, or paralyzed. […] Those nematodes that resumed activity upon probing were considered to suffer from temporary paralysis (impaired motility). Paralyzed nematodes were rinsed at least three times in distilled water and held for an additional 24 h to check for their recovery from temporarily paralysis. […] Experiments were repeated at least three times per treatment for each concentration tested.
(§3) For the toxicity data visualization, the relationship between percent mortality or temporary paralysis and metabolite concentration were described by a sigmoidal curve, which was fitted by the logistical function using the statistical software package SigmaPlot for Windows, version 14.0 (Systat Software Inc.). […] Concentration-response data of single metabolites or SM mixtures were pooled for each concentration and subjected to probit regression analysis using the Polo Plus program (LeOra Software). The LC or EC values, along with the corresponding 95% confidence intervals, were estimated for each single SM or SM mixture at each exposure time, depending on the experimental setting.

[1] = test system: non-target nematodes versus targeted PPNs; assay: Selectivity index, non-target nematodes over targeted PPNs; conditions: 24 h LC50
Protocol: The selectivity index of a given SM was calculated by dividing the averages of the LC50 or EC50 values obtained against each of the selected non-target nematodes by the LC50 or the EC50 values observed for each of the targeted PPN tested.

[2] = In vitro nematicidal assay, values summarised over the non-target nematodes; assay type: cell-based; conditions: non-target nematodes in 12-well tissue culture plates; 24 h exposure; species for which an LC50 was established; read-out: LC50 values, range over non-target nematodes
[3] = test system: Meloidogyne incognita J2 juveniles; assay: microbe, parasite or virus in culture; conditions: for LC50 / LC10 / LC25 / LC90: mortality
Excerpt: (§4) Only soil inhabiting (free-living or infective) stages of target and non-target nematode species were considered in the present study. All nematode cultures (except T. semipenetrans) were maintained in the Stock laboratory (University of Arizona). M. incognita was reared in planta using susceptible tomato plants (cv. Roma VF; seedlings with five or six true leaves; courtesy of Dr. J. Brown, University of Arizona). Eggs of M. incognita were extracted from infected tomato plant roots, and J2 were collected after hatching, following the procedures of Atamian et al. ([50]). T. semipenetrans was isolated from infested lemon orchards at the Yuma Agricultural Center, University of Arizona (Yuma, AZ, USA). Eggs of T. semipenetrans were extracted from infected lemon tree roots using the procedures of El-Borai et al. ([51]), and J2 were collected using the same procedure as that described for M. incognita.
as §1, §2, §3

[4] = test system: Tylenchulus semipenetrans J2 juveniles; assay: microbe, parasite or virus in culture; conditions: mortality
Excerpt: as §4, §1, §2, §3

[5] = test system: HFF cells (human foreskin cells); assay: MTT cytotoxicity assay; assay type: cell-based; conditions: tested at 50, 100, 200 μM, data not shown
Protocol: (§5) The non-cancerous HFF cells (human foreskin cells) and three human cancer cell lines, NCI-H460 (non-small cell lung cancer), SF-268 (central nervous system glioma), and MCF-7 (breast cancer) were used to evaluate the in vitro cytotoxicity of the isolated Photorhabdus SMs. The MTT (3-(4,5-dimethylthiazol-2-yl)-2,5-diphenyltetrazolium bromide) colorimetric method ([54]) was used with doxorubicin as the positive control, and DMSO as the negative control. Photorhabdus SMs were tested at 50, 100, and 200 μM concentrations, and the assays were repeated three times.

MCF-7 (breast cancer) = assay: MTT cytotoxicity assay; assay type: cell-based, human; conditions: tested at 50, 100, 200 μM, data not shown
Protocol: as §5

[6] = test system: SF-268 (central nervous system glioma); assay: MTT cytotoxicity assay; assay type: cell-based, human; conditions: tested at 50, 100, 200 μM, data not shown
Protocol: as §5

[7] = test system: NCI-H460 (non-small cell lung cancer); assay: MTT cytotoxicity assay; assay type: cell-based, human; conditions: tested at 50, 100, 200 μM, data not shown
Protocol: as §5

Row | Structure (SMILES) | LC10 ([3]; 24 h exposure) | LC25 ([3]; 24 h exposure) | LC90 ([3]; 24 h exposure) | LC10 ([3]; 48 h exposure) | LC25 ([3]; 48 h exposure) | LC90 ([3]; 48 h exposure) | LC25 ([3]; 72 h exposure) | LC90 ([3]; 72 h exposure) | LC10 ([4]; 24 h exposure) | LC25 ([4]; 24 h exposure) | LC90 ([4]; 24 h exposure) | LC10 ([4]; 48 h exposure) | LC25 ([4]; 48 h exposure) | LC90 ([4]; 48 h exposure) | LC25 ([4]; 72 h exposure) | LC90 ([4]; 72 h exposure) | other results
1 | CC(C)c1c(O)cc(C=Cc2ccccc2)cc1O [3,5-dihydroxy-4-isopropylstilbene] |  |  |  |  |  |  |  |  |  |  |  |  |  |  |  |  | Toxicity to non-target bacterivorous nematode (Caenorhabditis elegans): toxic at similar concentrations (up to 100 μg/ml); Nematicidal activity (Meloidogyne incognita): no activity
2 | O=C(O)CC/C=C/c1ccccc1 [PPA, (4E)-5-phenylpent-4-enoic acid] | 29.4 (22.1, 34.6) μg/mL | 35.8 (29.0, 40.5) μg/mL | 66.9 (61.4, 75.5) μg/mL | 27.6 (19.0, 33.3) μg/mL | 33.6 (25.7, 39.0) μg/mL | 63.9 (57.2, 75.9) μg/mL | 30.7 (22.0, 36.6) μg/mL | 61.0 (52.7, 76.5) μg/mL | 50.8 (27.0, 60.5) μg/mL | 57.6 (36.6, 66.0) μg/mL | 86.4 (78.2, 109.0) μg/mL | 42.7 (31.2, 50.0) μg/mL | 50.1 (39.8, 56.6) μg/mL | 83.7 (76.3, 96.6) μg/mL | 28.0 (8.0, 42.7) μg/mL | 92.4 (60.6, 312.0) μg/mL | LC50 at 24 h (in vitro; All, Steinernema carpocapsae): > 400 µg/mL; LC50 at 24 h (in vitro; Caborca, Heterorhabditis sonorensis): > 400 µg/mL; LC50 at 24 h (in vitro; DF5010, Rhabditis blumi): 346 µg/mL (≈ 1960 µM); LC50 at 24 h (in vitro; N2 Bristol, Caenorhabditis elegans): 278 µg/mL (≈ 1580 µM); LC50 at 24 h (in vitro; TT01, Heterorhabditis bacteriophora): > 400 µg/mL; Selectivity index (LC50 for the non-target nematodes over those for the targeted PPNs) [1]: 6 to 8; LC50 at 24 h [2]: 278 to 421 µg/mL (≈ 1580 to 2390 µM); Reduction of LC50 for M. incognita versus T. semipenetrans ([3]; 24 h postexposure): 33%; LC50 ([3]; Meloidogyne incognita, 24 h, 24 h exposure): 44 µg/mL (≈ 250 µM); LC50 ([3]; Meloidogyne incognita, 48 h, 48 h exposure): 42 µg/mL (≈ 238 µM); LC50 ([3]; Meloidogyne incognita, 72 h, 72 h exposure): 38.9 µg/mL (≈ 221 µM); LC50 ([3]; 24 h exposure): 44.4 µg/mL (≈ 252 µM); LC10 ([3]; 72 h exposure): 24.8 (16.0, 31.0) μg/mL; LC50 ([4]; Tylenchulus semipenetrans, 24 h, 24 h exposure): 66 µg/mL (≈ 375 µM); LC50 ([4]; Tylenchulus semipenetrans, 48 h, 48 h exposure): 59.8 µg/mL (≈ 339 µM); LC50 ([4]; Tylenchulus semipenetrans, 72 h, 72 h exposure): 42.2 µg/mL (≈ 239 µM); LC50 ([4]; 24 h exposure): 66.3 µg/mL (≈ 376 µM); LC10 ([4]; 72 h exposure): 19.3 (3.06, 31.9) μg/mL
3 | O=C(O)/C=C/c1ccccc1 [t-CA, trans-cinnamic acid] | 42.7 (25.6, 52.2) μg/mL | 53.0 (38.0, 61.6) μg/mL | 106.0 (89.6, 159.0) μg/mL | 37.3 (19.1, 47.2) μg/mL | 45.7 (29.0, 55.1) μg/mL | 87.9 (73.0, 137.0) μg/mL | 45.2 (37.7, 50.4) μg/mL | 69.7 (62.6, 82.9) μg/mL | 53.1 (41.2, 61.2) μg/mL | 62.8 (52.2, 70.0) μg/mL | 108.0 (100.0, 121.0) μg/mL | 51.5 (39.7, 59.1) μg/mL | 60.0 (49.6, 66.6) μg/mL | 98.0 (90.7, 110.0) μg/mL | 54.9 (44.4, 61.8) μg/mL | 95.8 (88.2, 108.0) μg/mL | In vitro cytotoxicity: none even at the highest concentration tested [5]: > 200 µM; Reduction of the LC90 at 72 h versus 24 h ([3]; M. incognita): 34%; In vitro cytotoxicity: none even at the highest concentration tested (MCF-7 (breast cancer)): > 200 µM; In vitro cytotoxicity: none even at the highest concentration tested [6]: > 200 µM; In vitro cytotoxicity: none even at the highest concentration tested [7]: > 200 µM
